Measurements reported in US20130281409A1, “Myelin Sheath Fatty Acids that Resolve Neuroinflammation” (priority 2012, published 2013).
Like-named read-outs stand apart in the source and are kept apart here.

How the values were obtained:
[1] = test system: azPC-mediated inhibition of MBP Ac1-11 specific T cell proliferation; assay: Phospholipase inhibitor effect on azPC-mediated inhibition of T cell proliferation; assay type: cell-based, mouse; conditions: about 40 min pre-incubation with inhibitor, 2 μg/ml MBPAc1-11, 30 μg/ml azPC, 48 hours
Method: 5×10^6 cells/ml were pre-incubated in complete RPMI media for about 40 min at 37° C. with 5% CO2, in the presence of the corresponding vehicle (DMSO or 100% ethanol) or a phospholipase inhibitor: OBAA (500 nM, Tocris Bioscience), U 73122 (500 nM, Tocris Bioscience), 525143 (5 μM, EMD, Calbiochem), FKGK 11 (50 μM, Caymen Chemical), YM 26734 (250 μM, Tocris Bioscience), LY 311727 (500 μM, Tocris Bioscience), CAY10590 (200 μM, Caymen Chemical), 525145 (5 μM, EMD, Calbiochem). Afterwards, the splenocytes were plated in triplicate and stimulated in vitro with 2 μg/ml of MBPAc1-11 in the presence of 30 μg/ml azPC for 48 hours. Proliferation response is the ratio of the average triplicate wells of MBP+azPC divided by the average triplicate wells of MBP, or MBP divided by MBP.

[2] = test system: MBPAc1-11-TCR transgenic splenocytes; assay: MBPAc1-11-specific T-cell proliferation (3H-thymidine incorporation); assay type: cell-based, mouse; conditions: fatty-acid side-chain analogs, various concentrations
Method: (§1) Splenocytes were harvested from mice transgenic for the MBPAc1-11-specific T-cell receptor and stimulated with 2 μg/ml of MBPAc1-11 in the presence of 30 μg/ml of lipid. Lymph nodes and spleens were also harvested from naive C57BL/6 mice, and CD3^+ T-cell enrichment columns (R&D systems) were used to isolate CD3^+ T cells. The purified CD3^+ T cells were stimulated with 5 μg/ml of plate-bound anti-CD3 antibodies and anti-CD28 antibodies in the presence of 30 μg/ml of POPS, PGPC, azPC ester, brain sulfatides, or azPC, 0.25 mM palmitic acid, or 100% ethanol (as the vehicle control). For assessment of proliferation, 1 μCi of ^3H-thymidine was added to each well for the final 18-24 hours of culture, and incorporation of radioactivity was measured by using a Betaplate scintillation counter. Cytokine assays were performed on culture supernatants after 24 (IL-12p40) or 48 hours (IFN-γ, IL-6, and TNF) of culture by using the BD OptEIA™ Mouse ELISA kits (BD Biosciences).
5×10^6 cells/ml were stimulated in vitro with 2 μg/ml of MBPAc1-11 in the presence of various concentrations of palmitic acid (Sigma), other lipids, or 100% Ethanol (vehicle alone).
For assessment of proliferation, 1 μCi of ^3H-thymidine was added to each well for the final 18 hours of culture, and incorporation of radioactivity was quantified using a Betaplate scintillation counter.

[3] = test system: CD3+ T cells; assay: Cytokine production of anti-CD3/anti-CD28-stimulated purified T cells; assay type: cell-based, mouse; conditions: anti-CD3 and anti-CD28, 0.25 mM palmitic acid, 48 h
Method: as §1
Anti-CD3/anti-CD28-stimulated purified T cells: We harvested lymph nodes and spleens from naive C57BL/6 mice and used CD3^+ T-cell enrichment columns (R&D systems) to isolate CD3^+ T cells. We then stimulated 1×10^6 cells/ml of T cells with 5 μg/ml of plate-bound anti-CD3 antibodies plus anti-CD28 antibodies in the presence of 30 μg/ml of POPS, PGPC, azPC ester, brain sulfatides, or azPC, […], or 100% ethanol (as the vehicle control).
Cytokine production by cells from the lymph nodes and spleens of PGPC co-immunized mice was measured after 66 hours of stimulation by using the BD OptEIA™ Mouse IFN-γ ELISA kit (BD Biosciences). Cytokine assays for the anti-CD3/anti-CD28 antibody-stimulated T cells and PLP139-151-stimulated splenocytes were performed on culture supernatants after 48 hours of stimulation using the BD OptEIA™ Mouse IL-6, IFN-γ, and TNF alpha ELISA kits (BD Biosciences) and the Mouse IL-17 DuoSet ELISA Development kit (R&D Systems).

[4] = test system: CD3+ T cells (gated on CD4+ T cells); assay: T-cell apoptosis, Annexin V and 7AAD staining; assay type: cell-based, mouse; conditions: 0.25 mM palmitic acid, anti-CD3 and anti-CD28, 48 h
Method: FIG. 5. […] (C) TUNEL staining of brain and spinal-cord tissue from mice immunized with PLP139-151 peptide (to induce EAE) and treated for 12 h with azPC, POPS, or vehicle on day 15 after immunization. […] (D) Quantification of TUNEL-positive infiltrating cells in brain and spinal cord shown in panel (C). Cells were stained according to standard protocols, run on a FACScan flow cytometer (BD Biosciences), and analysed with CellQuest software (BD Immunocytometry Systems). The antibody conjugate used was FITC anti-CD4, clone GK1.5 (BD Pharmingen). 7AAD staining was performed by using the Annexin V-PE Apoptosis Detection Kit I (BD Pharmingen). Cells were stained according to standard protocols, run on a FACScan flow cytometer (BD Biosciences), and analysed with CellQuest software (BD Immunocytometry Systems) or with FlowJo software version 6.3.2 (Tree Star, Inc.).

[5] = test system: EAE in PLP139-151-immunized SJL/J mice; assay: EAE, lipid or palmitic-acid treatment of established disease; assay type: in vivo, mouse
Method: Animal experiments were approved by, and performed in compliance with, the National Institute of Health guidelines of the Institutional Animal Care and Use Committee at Stanford University. For induction of EAE, 8- to 12-week-old female SJL/J mice (Jackson Laboratory) were immunized subcutaneously with 100 μg of PLP139-151 emulsified in CFA (Difco Laboratories). Lipid and palmitic-acid treatment: Administration of lipid, palmitic acid, or vehicle was initiated once the PLP139-151-immunized mice developed paralysis (representing clinical EAE) and repeated every other day, for a total of ten separate injections. 100 μg of POPS, PGPC, azPC ester, azPC, palmitic acid, or vehicle (0.05% Tween-20 in PBS) was administered in 0.2 ml intravenously in the tail. EAE treatment with lipid: 100 μg of PGPC or sphingomyelin or vehicle ([…] Tween-20 in PBS) was administered in 0.2 ml intravenously in the tail. Treatment with lipid or vehicle was initiated once the PLP139-151-immunized mice developed paralysis (representing clinical EAE) and repeated 3, 6, 12, and 18 days later, for a total of five separate injections.

[6] = test system: CD3+ T cells; assay: Proliferation of anti-CD3/anti-CD28-stimulated purified T cells; assay type: cell-based, mouse; conditions: anti-CD3 and anti-CD28, 0.25 mM palmitic acid, 48 h
Method: Splenocytes were harvested from mice transgenic for the MBPAc1-11-specific T-cell receptor and stimulated with 2 μg/ml of MBPAc1-11 in the presence of 30 μg/ml of lipid. Lymph nodes and spleens were also harvested from naive C57BL/6 mice, and CD3^+ T-cell enrichment columns (R&D systems) were used to isolate CD3^+ T cells. […] Cytokine assays were performed on culture supernatants after 24 (IL-12p40) or 48 hours (IFN-γ, IL-6, and TNF) of culture by using the BD OptEIA™ Mouse ELISA kits (BD Biosciences). Cd1d^−/− T cells: We harvested splenocytes from Cd1d^−/− mice and their wild-type littermates and used CD3^+ T-cell enrichment columns (R&D systems) to isolate T cells. […] Anti-CD3/anti-CD28-stimulated purified T cells: We harvested lymph nodes and spleens from naive C57BL/6 mice and used CD3^+ T-cell enrichment columns (R&D systems) to isolate CD3^+ T cells.

[7] = test system: EAE in PLP139-151-immunized SJL/J mice; assay: EAE, lipid administered prophylactically (co-immunization with PLP139-151); assay type: in vivo, mouse; conditions: 6 μg/injection; s.c. with PLP139-151 on day 0, i.p. on days 4 and 7
Method: Animal experiments were approved by, and performed in compliance with, the National Institute of Health guidelines of the Institutional Animal Care and Use Committee at Stanford University. For induction of EAE, 8- to 12-week-old female SJL/J mice (Jackson Laboratory) were immunized subcutaneously with 100 μg of PLP139-151 emulsified in CFA (Difco Laboratories). Three injections of PGPC (6 μg/mouse/injection) or vehicle (0.05% Tween-20 in PBS) were delivered on days 0, 4, and 7 after immunization with PLP139-151. On day 0, the lipid or vehicle was emulsified together with PLP139-151 in CFA and administered by subcutaneous injection. At subsequent time points, lipid or vehicle was injected intraperitoneally. EAE was assessed as previously described. To induce EAE in SJL/J mice (Jackson Mice), we immunized 8- to 12-week-old female animals subcutaneously with 100 μg of PLP139-151 emulsified in CFA (Difco Laboratories). Prophylactic administration of lipid: Three injections of PGPC or sphingomyelin (6 μg/mouse/injection) or vehicle (0.05% Tween-20 in PBS) were delivered on days 0, 4, and 7 after immunization with PLP139-151. […] Clinical disease was monitored daily using the following scoring system: 0, no disease; 1, limp tail; 2, hind limb weakness; 3, hind limb paralysis; 4, hind limb and forelimb paralysis; 5, death. […]

[8] = test system: NF-κB and ERK pathways, Bcl-2 family proteins; assay: Immunoblot of inflammatory, survival and apoptotic signaling in anti-CD3/anti-CD28-stimulated T cells; assay type: cell-based, mouse; conditions: 30 μg/ml lipid, 15 min or 24 h
Method: CD3^+ T cells were isolated from the lymph nodes of naïve C57BL/6 mice by using CD3^+ T-cell enrichment columns (R&D systems). […] Cells were washed with ice-cold PBS and lysed in RIPA lysis buffer containing 1X Halt protease and phosphatase inhibitor cocktail (Pierce) with a Dounce homogenizer. Immunoblotting was performed with antibodies against phospho-Bim ([…]), phospho-Bad ([…]), phospho-Bcl-2 ([…]), phospho-IKKα/β (serines 180/181), phospho-p65 ([…]), phospho-ERK1/2 […]), and IκBα from Cell Signaling Technology.

[9] = test system: EAE in PLP139-151-immunized SJL/J mice; conditions: prophylactic regimen, previously tested by the applicant, cited from earlier work

For `CCCC[C@H](CCC(=O)O)NC(=O)CCCCCCc1ccccc1` [CAY10950], the “Effect on azPC (azPC-mediated inhibition of MBP-specific T cell proliferation)” value [1] was “Inhibited”.
In the case of `O=C(CCCCc1ccccc1)C(F)(F)C(F)(F)F` [FKGK 11], the “Effect on azPC (azPC-mediated inhibition of MBP-specific T cell proliferation)” value [1] is reported as “No effect”.
For `CCc1c(CC(N)=O)c2cc(OCCCP(=O)(O)O)ccc2n1Cc1ccccc1` [LY 311727], the “Effect on azPC (azPC-mediated inhibition of MBP-specific T cell proliferation)” value [1] was “Inhibited”.
With `COc1ccc2c(c1)CC[C@@H]1[C@@H]2CC[C@]2(C)[C@@H](NCCCCCCN3C(=O)C=CC3=O)CC[C@@H]12` [U 73122] the “Effect on azPC (azPC-mediated inhibition of MBP-specific T cell proliferation)” value [1] was “No effect”.
In the case of `CCCCCCCCCCCC(=O)c1c(O)c(C(=O)CCCCCCCCCCC)c(O)c(C2CC(c3ccc(O)cc3)Oc3cc(O)ccc32)c1O` (stereo not drawn) [YM 26734], the “Effect on azPC (azPC-mediated inhibition of MBP-specific T cell proliferation)” value [1] is reported as “Inhibited”.
In the case of `CCCCCCCC(=O)OC` [methyl octanoate], the “concentration at which T-cell proliferation was suppressed” value (“concentration” below) [2] is reported as 10 mM.
For `CCCCCCCC(=O)O` [octanoic acid], the “concentration” value [2] was 5 mM.
With `CCCCCCCCCCCCCCCC(=O)O` [palmitic acid] the “T-cell production of IFN-γ” value [3] was “suppressed”, the “T-cell production of IL-6” value [3] was “suppressed” and the “T-cell production of IL-17” value [3] was “suppressed”. The “T-cell production of TNF” value [3] was “suppressed”, the “concentration” value [2] was 0.1 mM and the T-cell apoptosis [4] was “induced T-cell apoptosis”. The “EAE course after treatment was halted” value ([5]; 100 μg i.v. every other day, then stopped) was “disease relapsed”, the “EAE severity, established disease” value ([5]; 100 μg i.v. once paralysis developed, every other day, ten injections) was “attenuated EAE” and the T-cell proliferation [6] was “suppressed T-cell proliferation as effectively as the phospholipids”.
For Sphingomyelin [reference compound], the “EAE severity (clinical score)” value [7] was “attenuated EAE” and the “EAE severity, established disease” value ([5]; 100 μg i.v. from disease onset (10 days after immunization), five injections) was “exacerbated EAE”.
In the case of sulfatide [reference compound], the “CD3/CD28-induced activation of the NF-κB and ERK pathways” value [8] is given as “neither inhibited”, the EAE severity [9] is given as “exacerbated EAE” and the EAE severity ([9]; listed as sulfatides) is given as “worsened EAE”.
